Test systems include UACC-257; HCT-116; ACHN; NCI-H522; OVCAR-8; SF-295; HT-29; CCRF-CEM; TK-10; OVCAR-5; UO-31; A549; HCC 2998; MOLT-4; COLO 205; 786-0; OVCAR-4; SNB-75.
Holding throughout (assay): NCI anticancer screen, dose series, 48 h

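Method: 48-hour compound exposure of cells in 96-well plates, five concentrations, linear interpolation of endpoints. GI50 marks 50% less growth.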 The source made the active and inactive calls. No stated cut-off is given here; in the data, active = GI50 up to about 1.1 µM and inactive = higher.

As for `COC(=O)c1c(-c2cc(OC)c(OC)c(OC)c2)oc2ccccc2c1=O`, the GI50 was > 100 µM (inactive) in the assay with UACC-257; 48.3 µM (inactive) in the assay with HCT-116; > 100 µM (inactive) in the assay with ACHN; 94 µM (inactive) in the assay with NCI-H522; > 100 µM (inactive) in the assay on OVCAR-8; > 100 µM (inactive) with SF-295. The GI50 in the assay with HT-29 was > 100 µM (inactive); in the assay with CCRF-CEM, 36.7 µM (inactive); in the assay with TK-10 it was 42.6 µM (inactive); in the assay with OVCAR-5, > 100 µM (inactive); in the assay on UO-31 it was 66.4 µM (inactive); with A549, 83.8 µM (inactive). The GI50 was > 100 µM (inactive) in the assay with HCC 2998; 70.1 µM (inactive) in the assay with MOLT-4; 97.7 µM (inactive) in the assay on COLO 205; > 100 µM (inactive) with 786-0; 68.4 µM (inactive) with OVCAR-4; 58.7 µM (inactive) with SNB-75.
Turning to `Cc1nnc(N/N=C(/C(=O)C(C#N)c2ccccc2)C(C#N)c2ccccc2)n1N` (configuration not stated), the GI50 with UACC-257 was 5.26 µM (inactive); in the assay on HCT-116, 2.46 µM (inactive); in the assay on ACHN, 22.3 µM (inactive); in the assay on NCI-H522 it was 17.9 µM (inactive); in the assay on OVCAR-8, 3.62 µM (inactive); with SF-295, 3.75 µM (inactive). For the same compound, the GI50 with HT-29 was 6.4 µM (inactive); in the assay with CCRF-CEM it was 2.12 µM (inactive); in the assay with TK-10, > 60.3 µM (inactive); in the assay with OVCAR-5 it was > 42.9 µM (inactive); in the assay on UO-31 it was 26.4 µM (inactive); with A549 it was 20.2 µM (inactive). Further, the GI50 was 4.85 µM (inactive) in the assay with HCC 2998; 0.845 µM (active) in the assay on MOLT-4; 4.76 µM (inactive) in the assay with COLO 205; 11.8 µM (inactive) in the assay with 786-0; 24.4 µM (inactive) in the assay on OVCAR-4; 16.4 µM (inactive) in the assay on SNB-75.
For `COc1ccc(Cc2nc3ccccc3s2)cc1OC`, the GI50 was 18.1 µM (inactive) with UACC-257; 15.8 µM (inactive) with HCT-116; 16.8 µM (inactive) in the assay with ACHN; 17.8 µM (inactive) in the assay on NCI-H522; 16.9 µM (inactive) in the assay on OVCAR-8; 15.1 µM (inactive) with SF-295. Further, the GI50 with HT-29 is 18.7 µM (inactive); in the assay with CCRF-CEM it was 14.8 µM (inactive); with TK-10, 36.2 µM (inactive); in the assay with OVCAR-5, 22.3 µM (inactive); with UO-31, 16.4 µM (inactive); in the assay on A549 it was 23.5 µM (inactive). Moreover, the GI50 is 21.1 µM (inactive) in the assay on HCC 2998; 20.2 µM (inactive) with MOLT-4; 14.6 µM (inactive) in the assay with COLO 205; 17.9 µM (inactive) in the assay with 786-0; 16.4 µM (inactive) with OVCAR-4; 18.8 µM (inactive) in the assay on SNB-75.
On to `CN(C)/C(F)=P\C(F)(F)F` (configuration not stated), for which the GI50 in the assay on UACC-257, in the assay on HCT-116, with ACHN, in the assay with NCI-H522, in the assay on OVCAR-8 and in the assay on SF-295 was > 100 µM (inactive) each time. The GI50 with HT-29, with CCRF-CEM, in the assay with TK-10, in the assay with OVCAR-5, in the assay on UO-31 and in the assay with A549 was > 100 µM (inactive) each time. For the same compound, the GI50 with HCC 2998, in the assay on MOLT-4, in the assay with COLO 205, with 786-0, in the assay on OVCAR-4 and in the assay with SNB-75 was > 100 µM (inactive) throughout.
On to `COC(=O)C1CC/C(=N/c2ccc(C)cc2C)N1` (configuration not stated), for which the GI50 with UACC-257, in the assay with HCT-116, with ACHN, in the assay on NCI-H522, in the assay on OVCAR-8 and with SF-295 was > 100 µM (inactive) each time. Further, the GI50 in the assay on HT-29, in the assay on CCRF-CEM, with TK-10, in the assay with OVCAR-5, in the assay on UO-31 and in the assay with A549 was > 100 µM (inactive) throughout. Moreover, the GI50 is > 100 µM (inactive) in the assay on HCC 2998; > 100 µM (inactive) in the assay with MOLT-4; > 100 µM (inactive) in the assay on COLO 205; > 100 µM (inactive) in the assay with 786-0; > 100 µM (inactive) with OVCAR-4; 99.3 µM (inactive) with SNB-75.
As to `CCCCCCCCCCCCCCCC(=O)OCCOCCOCCOCCOCCOC(=O)CCCCCCCCCCCCCCC`, the GI50 in the assay on UACC-257, in the assay with HCT-116, in the assay with ACHN, in the assay on NCI-H522, in the assay on OVCAR-8 and with SF-295 was > 100 µM (inactive) throughout. Also, the GI50 with HT-29, in the assay with CCRF-CEM, in the assay on TK-10, in the assay on OVCAR-5, in the assay on UO-31 and in the assay with A549 was > 100 µM (inactive) throughout. Besides, the GI50 was > 100 µM (inactive) in the assay on HCC 2998; > 100 µM (inactive) in the assay on MOLT-4; > 100 µM (inactive) in the assay with COLO 205; > 100 µM (inactive) in the assay on 786-0; > 100 µM (inactive) with OVCAR-4; > 10 µM (inactive) in the assay on SNB-75.
On to `O=c1c(O)c(-c2ccccc2)n(O)c2ccc(Cl)cc12`, for which the GI50 was 25.1 µM (inactive) with UACC-257; 10.9 µM (inactive) with HCT-116; 30.6 µM (inactive) with ACHN; 21.4 µM (inactive) in the assay with NCI-H522; 21.3 µM (inactive) in the assay with OVCAR-8; 29.4 µM (inactive) in the assay with SF-295. Also, the GI50 is 36.8 µM (inactive) in the assay on HT-29; 23.9 µM (inactive) in the assay with CCRF-CEM; 31.3 µM (inactive) with TK-10; 38.9 µM (inactive) in the assay on OVCAR-5; 51.2 µM (inactive) in the assay on UO-31; 29.6 µM (inactive) in the assay with A549. For the same compound, the GI50 was 17.7 µM (inactive) with HCC 2998; 32.7 µM (inactive) in the assay with MOLT-4; 36.1 µM (inactive) with COLO 205; 28.7 µM (inactive) in the assay on 786-0; 36.3 µM (inactive) in the assay with OVCAR-4; 29 µM (inactive) with SNB-75.
`CC(C)c1cc(OCC(O)CO)cc(C(C)C)c1` (configuration not stated): the GI50 in the assay with UACC-257, in the assay with HCT-116, in the assay on ACHN, in the assay on NCI-H522, in the assay on OVCAR-8 and in the assay with SF-295 was > 100 µM (inactive) in each case. For the same compound, the GI50 in the assay on HT-29, with CCRF-CEM, in the assay on TK-10, in the assay on OVCAR-5, with UO-31 and in the assay on A549 was > 100 µM (inactive) throughout. Besides, the GI50 in the assay on HCC 2998, with MOLT-4, with COLO 205, in the assay on 786-0, with OVCAR-4 and with SNB-75 was > 100 µM (inactive) each time.
For `CC(C)(C)C#C[P+](c1ccccc1)(c1ccccc1)c1ccccc1`, the GI50 with UACC-257 is 0.366 µM (active); with HCT-116, 0.177 µM (active); in the assay on ACHN, 1.39 µM (inactive); with NCI-H522 it was 0.15 µM (active); in the assay on OVCAR-8, 0.185 µM (active); in the assay with SF-295 it was 0.292 µM (active). Also, the GI50 with HT-29 was 0.292 µM (active); with CCRF-CEM, 0.108 µM (active); with TK-10, 1.43 µM (inactive); in the assay with OVCAR-5, 1.15 µM (inactive); in the assay on UO-31, 1.04 µM (active); in the assay with A549, 0.253 µM (active). Further, the GI50 is 0.293 µM (active) in the assay with HCC 2998; 0.197 µM (active) with MOLT-4; 0.17 µM (active) in the assay on COLO 205; 0.337 µM (active) in the assay on 786-0; 0.211 µM (active) in the assay on OVCAR-4; 0.0348 µM (active) in the assay on SNB-75.
For `CCOC(=O)Cc1nc2ccccc2s1`, the GI50 in the assay on UACC-257 was 17.3 µM (inactive); with HCT-116, 18.2 µM (inactive); in the assay with ACHN, 17.1 µM (inactive); with NCI-H522, 19.6 µM (inactive); with OVCAR-8, 17.5 µM (inactive); with SF-295, 17.7 µM (inactive). In addition, the GI50 in the assay on HT-29 is 19.6 µM (inactive); in the assay with CCRF-CEM, 18.8 µM (inactive); in the assay with TK-10, 27.5 µM (inactive); with OVCAR-5 it was 24.9 µM (inactive); in the assay on UO-31, 15.8 µM (inactive); in the assay with A549, 22.9 µM (inactive). For the same compound, the GI50 is 88.1 µM (inactive) in the assay with HCC 2998; 25.6 µM (inactive) with MOLT-4; 38.6 µM (inactive) in the assay with COLO 205; 18.9 µM (inactive) in the assay with 786-0; > 10 µM (inactive) in the assay on OVCAR-4; 29.3 µM (inactive) in the assay with SNB-75.
With `O=C(CCn1[nH]c(=O)c(Cl)c(Cl)c1=O)NNC(=O)C[n+]1ccccc1`, the GI50 is > 10 µM (inactive) in the assay on UACC-257; > 100 µM (inactive) in the assay with ACHN; > 100 µM (inactive) in the assay with NCI-H522; > 100 µM (inactive) in the assay on OVCAR-8; > 100 µM (inactive) in the assay with SF-295; > 100 µM (inactive) in the assay on HT-29. The GI50 with CCRF-CEM, in the assay on TK-10, in the assay on OVCAR-5, in the assay on UO-31, with A549 and in the assay with HCC 2998 was > 100 µM (inactive) in each case. The GI50 in the assay with MOLT-4 is > 100 µM (inactive); in the assay with COLO 205, > 100 µM (inactive); with 786-0, > 100 µM (inactive); in the assay on OVCAR-4 it was > 100 µM (inactive); with SNB-75 it was 52.4 µM (inactive).

For the origin of these results see ChEMBL document CHEMBL1201862, “PubChem BioAssay data set” (2004).
